Measured values from PubChem BioAssay (NCI).
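All cell lines were grown in 96-well plates and treated with compound for 48 hours. At the GI50, growth is halved. At the TGI there is no net growth.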

Key:
Test in all cases: growth of human tumour cells (NCI), 48 h
[1] = system: NCI/ADR-RES ovarian
[2] = system: MOLT-4 leukemia
[3] = system: BT-549 breast
[4] = system: U251 CNS
[5] = system: DU-145 prostate
[6] = system: HOP-62 NSCLC
[7] = system: SK-MEL-2 melanoma
[8] = system: MCF7 breast
[9] = system: NCI-H23 lung
[10] = system: OVCAR-4 ovarian

SMILES	TGI [1]	TGI [2]	TGI [3]	TGI [4]	TGI [5]	TGI [6]	TGI [7]	TGI [8]	TGI [9]	TGI [10]	GI50 [1]	GI50 [2]	GI50 [3]	GI50 [4]	GI50 [5]	GI50 [6]	GI50 [7]	GI50 [8]	GI50 [9]	GI50 [10]
C[C@]12CC[C@@H]3c4ccc(OCC(=O)O)cc4CC[C@H]3[C@@H]1CCC2=O	> 100 µM	64.4 µM	> 100 µM	> 100 µM	> 100 µM	> 100 µM	> 100 µM	> 100 µM	> 100 µM	> 100 µM										
O=C(/C=C/C12c3ccccc3C(c3ccccc31)C1C(=O)NC(=O)C12)c1ccco1 (stereo not given)	6.42 µM	7.63 µM	7.53 µM	4.36 µM	11.9 µM	6.99 µM	4.44 µM	12.6 µM	4.83 µM	13.5 µM	2.38 µM	2.16 µM	2.89 µM	2.01 µM	2.98 µM	2.7 µM	2.19 µM	2.49 µM	2.22 µM	3.45 µM
C/C(=C\c1ccn(-c2ccc(N)cc2C(F)(F)F)n1)[C@@H]1C[C@@H]2O[C@]2(C)CCC[C@H](C)[C@H](O)[C@@H](C)C(=O)C(C)(C)[C@@H](O)CC(=O)O1	> 11.1 µM	> 11.1 µM	> 11.1 µM	> 11.1 µM	2.87 µM	9.98 µM	0.902 µM	> 11.1 µM	> 11.1 µM	> 11.1 µM	4.38 µM	0.533 µM	0.553 µM	0.386 µM	0.401 µM	0.49 µM	0.303 µM	0.0859 µM	0.548 µM	> 11.1 µM
